Measurements reported in patent publication US6355799B1, “Substituted benzene compounds, process for their preparation, and herbicidal and defoliant compositions containing them” (ISK Americas Incorporated, priority 1997, dated 2002).

Experiments:
Format in all cases: in vivo
[1] = test system: redroot pigweed (Amaranthus retroflexus, AMARE); test: Pre-emerge test, greenhouse herbicide activity screening; details: phytotoxicity rating 0-100, 14 days after application
Procedure, shortened: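 Herbicidal damage is scored 0 (none) to 100 (complete plant death) two weeks after a simulated field spray. Rates span 15–1000 g ai/ha, delivered in acetone at 187 l/ha. For post-emergence treatments, plants have 2–3 leaves and the spray carries 0.25% v/v non-ionic surfactant.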

[2] = test system: upland rice (Oryza sp., var. Tebonnet, RICE); test: Pre-emerge test, crop safety; details: crop damage rating 0-100, 14 days after application
Procedure, shortened: (§1)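 Fourteen days after spraying, crop and weed injury was graded visually from 0, no effect, to 100, every plant dead. Test substances were dissolved in acetone and applied at 15–1000 g ai/ha with a flat-fan nozzle. Application was either pre-emergence, one day after sowing, or post-emergence at the 2–3 leaf stage.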

[3] = test system: field corn (Zea mays L., var. Dekalb 535, CORN); test: Pre-emerge test, crop safety; details: crop damage rating 0-100, 14 days after application
Procedure, shortened: as §1

[4] = test system: ivyleaf morningglory (Ipomoea hederacea, IPOHE); test: Pre-emerge test, greenhouse herbicide activity screening; details: phytotoxicity rating 0-100, 14 days after application
Procedure, shortened: (§2)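 Compounds in acetone were track-sprayed at 15–1000 g ai/ha: pre-emergence onto soil sown the previous day, then top-watered to incorporate and later bottom-watered; post-emergence onto 2–3 leaf plants with 0.25% v/v surfactant, bottom-watered only. Ratings on a 0–100 phytotoxicity scale were taken at day 14.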

[5] = test system: barnyardgrass (Echinochloa crus-galli, ECHCG); test: as above; details: phytotoxicity rating 0-100, 14 days after application
Procedure, shortened: as §2

[6] = test system: green foxtail (Setaria viridis, SETVI); test: as above; details: phytotoxicity rating 0-100, 14 days after application
Procedure, shortened: as §2

[7] = test system: large crabgrass (Digitaria sanguinalis, DIGSA); test: as above; details: phytotoxicity rating 0-100, 14 days after application
Procedure, shortened: as §2

[8] = test system: velvetleaf (Abutilon theophrasti, ABUTH); test: as above; details: phytotoxicity rating 0-100, 14 days after application
Procedure, shortened: as §2

[9] = test system: lambsquarters (Chenopodium album, CHEAL); test: as above; details: phytotoxicity rating 0-100, 14 days after application
Procedure, shortened: as §2

[10] = test system: johnsongrass (Sorghum halepense, SORHA); test: as above; details: phytotoxicity rating 0-100, 14 days after application
Procedure, shortened: as §2

[11] = test system: sicklepod (Cassia obtusifolia, CASOB); test: as above; details: phytotoxicity rating 0-100, 14 days after application
Procedure, shortened: as §2

[12] = test system: upland rice (Oryza sp., var. Tebonnet, RICE); test: Post-emerge test, crop safety; details: post-emerge, 14 days after application, rating scale 0-100
Procedure, shortened: (§3)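 Rating: 0–100 visual injury, 14 DAA. Application: acetone, 187 l/ha, 15–1000 g ai/ha, flat-fan track sprayer with nozzle 40–45 cm above soil or canopy. Post-emerge runs used 0.25% v/v surfactant on 2–3 leaf plants.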

[13] = test system: field corn (Zea mays L., var. Dekalb 535, CORN); test: Post-emerge test, crop safety; details: post-emerge, 14 days after application, rating scale 0-100
Procedure, shortened: as §3

[14] = test system: ivyleaf morningglory (Ipomoea hederacea, IPOHE); test: Post-emerge test, greenhouse herbicide activity screening; details: post-emerge, 14 days after application, rating scale 0-100
Procedure, shortened: (§4)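 Compounds in acetone were track-sprayed at 187 l/ha, 15–1000 g ai/ha, onto sandy loam pots. Pre-emerge seeds were sown one day before spraying, with surface watering afterwards. Post-emerge plants were at the 2–3 leaf stage and sprayed with 0.25% v/v non-ionic surfactant. Injury was rated 0–100 at 14 days.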

[15] = test system: barnyardgrass (Echinochloa crus-galli, ECHCG); test: as above; details: post-emerge, 14 days after application, rating scale 0-100
Procedure, shortened: as §4

[16] = test system: green foxtail (Setaria viridis, SETVI); test: as above; details: post-emerge, 14 days after application, rating scale 0-100
Procedure, shortened: as §4

[17] = test system: large crabgrass (Digitaria sanguinalis, DIGSA); test: as above; details: post-emerge, 14 days after application, rating scale 0-100
Procedure, shortened: as §4

[18] = test system: velvetleaf (Abutilon theophrasti, ABUTH); test: as above; details: post-emerge, 14 days after application, rating scale 0-100
Procedure, shortened: as §4

[19] = test system: lambsquarters (Chenopodium album, CHEAL); test: as above; details: post-emerge, 14 days after application, rating scale 0-100
Procedure, shortened: as §4

[20] = test system: redroot pigweed (Amaranthus retroflexus, AMARE); test: as above; details: post-emerge, 14 days after application
Procedure, shortened: as §4

[21] = test system: johnsongrass (Sorghum halepense, SORHA); test: as above; details: post-emerge, 14 days after application, rating scale 0-100
Procedure, shortened: as §4

[22] = test system: sicklepod (Cassia obtusifolia, CASOB); test: as above; details: post-emerge, 14 days after application, rating scale 0-100
Procedure, shortened: as §4

Compound: COc1c(Cl)cc(F)c(-n2c(=O)cc(C(F)(F)F)n(C)c2=O)c1NC(=O)OCc1ccc(F)c(F)c1 [4-30]
- Pre-emerge Herbicidal Activity AMARE ([1]; 63 g ai/ha): 100
- Pre-emerge Herbicidal Activity AMARE ([1]; 250 g ai/ha): 100
- Pre-emerge Herbicidal Activity RICE ([2]; 63 g ai/ha): 90
- Pre-emerge Herbicidal Activity RICE ([2]; 250 g ai/ha): 90
- Pre-emerge Herbicidal Activity CORN ([3]; 63 g ai/ha): 30
- Pre-emerge Herbicidal Activity CORN ([3]; 250 g ai/ha): 70
- Pre-emerge Herbicidal Activity IPOHE ([4]; 63 g ai/ha): 60
- Pre-emerge Herbicidal Activity IPOHE ([4]; 250 g ai/ha): 100
- Pre-emerge Herbicidal Activity ECHCG ([5]; 63 g ai/ha): 60
- Pre-emerge Herbicidal Activity ECHCG ([5]; 250 g ai/ha): 90
- Pre-emerge Herbicidal Activity SETVI ([6]; 63 g ai/ha): 100
- Pre-emerge Herbicidal Activity SETVI ([6]; 250 g ai/ha): 100
- Pre-emerge Herbicidal Activity DIGSA ([7]; 63 g ai/ha): 90
- Pre-emerge Herbicidal Activity DIGSA ([7]; 250 g ai/ha): 100
- Pre-emerge Herbicidal Activity ABUTH ([8]; 63 g ai/ha): 100
- Pre-emerge Herbicidal Activity ABUTH ([8]; 250 g ai/ha): 100
- Pre-emerge Herbicidal Activity CHEAL ([9]; 63 g ai/ha): 100
- Pre-emerge Herbicidal Activity CHEAL ([9]; 250 g ai/ha): 100
- Pre-emerge Herbicidal Activity SORHA ([10]; 63 g ai/ha): 30
- Pre-emerge Herbicidal Activity SORHA ([10]; 250 g ai/ha): 80
- Pre-emerge Herbicidal Activity CASOB ([11]; 63 g ai/ha): 90
- Pre-emerge Herbicidal Activity CASOB ([11]; 250 g ai/ha): 95
- phytotoxicity rating RICE (crop damage) ([12]; 63 g ai/ha): 80
- phytotoxicity rating RICE (crop damage) ([12]; 250 g ai/ha): 85
- phytotoxicity rating CORN (crop damage) ([13]; 63 g ai/ha): 90
- phytotoxicity rating CORN (crop damage) ([13]; 250 g ai/ha): 99
- phytotoxicity rating IPOHE ([14]; 63 g ai/ha): 100
- phytotoxicity rating IPOHE ([14]; 250 g ai/ha): 100
- phytotoxicity rating ECHCG ([15]; 63 g ai/ha): 50
- phytotoxicity rating ECHCG ([15]; 250 g ai/ha): 90
- phytotoxicity rating SETVI ([16]; 63 g ai/ha): 80
- phytotoxicity rating SETVI ([16]; 250 g ai/ha): 100
- phytotoxicity rating DIGSA ([17]; 63 g ai/ha): 50
- phytotoxicity rating DIGSA ([17]; 250 g ai/ha): 85
- phytotoxicity rating ABUTH ([18]; 63 g ai/ha): 100
- phytotoxicity rating ABUTH ([18]; 250 g ai/ha): 100
- phytotoxicity rating CHEAL ([19]; 63 g ai/ha): 100
- phytotoxicity rating CHEAL ([19]; 250 g ai/ha): 100
- phytotoxicity rating AMARE ([20]; 63 g ai/ha, rating scale 0-100 (0 no damage, 100 complete death)): 100
- phytotoxicity rating AMARE ([20]; 250 g ai/ha, rating scale 0-100): 100
- phytotoxicity rating SORHA ([21]; 63 g ai/ha): 50
- phytotoxicity rating SORHA ([21]; 250 g ai/ha): 100
- phytotoxicity rating CASOB ([22]; 63 g ai/ha): 100
- phytotoxicity rating CASOB ([22]; 250 g ai/ha): 100
